The results in this text go back to patent US11007169B2, “Cis-gnetin H and trans-gnetin H as therapeutic agents” (MIDDLE TENNESSEE STATE UNIVERSITY, priority 2014, dated 2021).

Test [1] relates to MCF-7 cells (human breast carcinoma). The test is described as follows: Inhibition of cell proliferation, AlamarBlue fluorescent assay, MCF-7. It counts as cell-based. The settings on record: MCF7, 48 hours, cancer cell line. As for the experimental part:
(§1) The cancer cell lines used in this study included human lung carcinoma (A549), human breast carcinoma (BT20 and MCF-7) and human osteosarcoma (U2OS), with the normal cell lines human peripheral lung epithelial cells (HPL1A) and human mammary epithelial cells (HMEC) serving as controls. A549, BT20, MCF-7, U2OS and HMEC cells were purchased from American Type Culture Collection (ATCC, USA), and HPL1A cells were obtained from Nagoya University, Japan. A549 and BT20 were grown in RPMI-1640 (Sigma), MCF-7 was grown in Dulbecco's Modified Eagle Medium (DMEM) (Sigma) supplemented with 0.01 mg/ml human recombinant insulin (Sigma), U2OS and HMEC were grown in McCoy's 5A (ATCC), and HPL1A was grown in DMEM/F-12K (Sigma). The mediums were supplemented with 10% Fetal Bovine Serum (FBS) (Gibco), 1% penicillin and streptomycin and incubated in a humidified atmosphere with 5% CO2 at 37° C.
(§2) The proliferation inhibition potential of cis- and trans-gnetin H was determined by a fluorescence dye staining method. Cells were seeded in a 96-well tissue culture-treated plate (BD Falcon) at a density of 4000 cells/well, and treated with cis- or trans-gnetin H for 48 hours. AlamarBlue dye (Invitrogen) was used to assess the viability of cells according to the manufacturer's instructions; the fluorescent intensity was read on a SpectraMax M2e microplate reader (Molecular Devices Inc.). […]

Test [2] has as its system normal cells (HPL1A, HMEC). The test is described as follows: IC50 determination, normal cell lines. It counts as cell-based. To be noted: Homo sapiens; HPL1A and HMEC, 48 hours; read-out: IC50 values in normal cells (range over cell lines). As for the experimental part: as §1, §2
The test system of test [3] is A549 cells. The test is described as follows: Multi-parameter cytotoxicity measurement, Arrayscan VTI HCS Reader. The format is cell-based, human. To be noted: for mitochondria transmembrane potential: A549, after both 24 hrs and 48 hrs. As to the method: A549 cells were seeded in a 96-well plate (BD Falcon) at a density of 4000 cells/well, and then treated with different concentrations ([…] 100 μM) of cis- or trans-gnetin H for 24 hours and 48 hours. Non-treated cells and cells treated with 100 μM Valinomycin were used as negative and positive controls. After treatment, the cells were stained with a mixture of fluorescent dyes including Hoechst 33342 (blue florescence), cell permeability dye (green florescence) and mitochondrial membrane potential dye (red florescence) (Thermo Scientific). The three dyes allow changes in nuclear morphology, cell membrane permeability and mitochondrial trans-membrane potential to be determined. The cells were fixed and washed, and images for each fluoroprobe were acquired at different channels using suitable filters with a 20× objective and analyzed on the Arrayscan VTI HCS Reader (Thermo Scientific). The Cell Health Profiling BioApplication software (Thermo Scientific) was used for image acquisition and analysis. For each well, at least 400 cells were automatically acquired and analyzed. The average fluorescent intensity was used to quantify changes in each channel and each experiment was performed in triplicate.

Test [4] concerns BT20 cells. The test is described as follows: Apoptosis assay by flow cytometry, BT20. The format is cell-based, human. The settings on record: 100 μM, 24 hours. As to the method:
A549 and BT20 cells were seeded in a 96-well plate (BD Falcon) at a density of 8000 cells/well, and treated with cis- or trans-gnetin H for 24 hours. Apoptosis was assessed using Annexin V/7-AAD double staining as described (Bai et al., Cancer Sci. 2010; 101(2):488-493). Cells were analyzed on a Guava Flow Cytometer (Millipore) using InCyte software and the data was exported to FlowJo software for image display.
Background: Flow cytometry measures light scatter and fluorescence of single cells or particles in a stream.

Test [5] deals with mitochondrial cytochrome c in A549 cells. Nature of the test: Analysis of cytochrome c by flow cytometry, A549. It counts as cell-based, human. The settings on record: 100 μM, 24 hours. As to the method: A549 and BT20 cells were seeded in a 96-well plate (BD Falcon) at a density of 8000 cells/well and treated with 100 μM of cis- or trans-gnetin H for 24 hours. The expression of cytochrome c was evaluated using the FlowCellect Cytochrome c Kit (Millipore) according to the manufacturer's instructions. Cells were stained with either Anti-IgG1-FITC Isotype control or Anti-Cytochrome c-FITC, and data was acquired and analyzed using the Guava Flow Cytometer (Millipore).

The subject of test [6] is BT20 cells. The test is described as follows: Cell cycle analysis by flow cytometry, BT20. The format is cell-based, human. The settings on record: 100 μM, 24 hours. As for the experimental part:
A549 and BT20 cells were first synchronized in the G0 phase by culturing cells for 24 hours in serum-free medium and then treated with 100 μM cis- or trans-gnetin H for 24 hours, respectively. Cell cycle analysis was done using propidium iodide (PI) staining as described (An et al., Mol. Cancer Ther. 2007; 6:61-9) and the cells were analyzed on a Guava Flow Cytometer with InCyte software (Millipore).

The test system of test [7] is p65 (RelA) nuclear translocation in THP-1 cells. The test is described as follows: Indirect immunofluorescence for NF-κB nuclear translocation. The settings on record: pretreated 1 h, LPS 30 min; Bay 11-7082 10 μM. The format is cell-based, human. As for the experimental part: THP-1 cells were maintained in RPMI 1640 medium supplemented with 10% complement-inactivated FBS and 1% penicillin/streptomycin (complete culture medium) at 37° C. with 5% CO2 supplemented. Cell concentrations were adjusted to desired concentrations for each experiment by centrifugation at 500×g for 5 min and resuspended in complete culture medium with 100 nM of PMA. Cell concentration was adjusted to 5×10^5 cells/ml for all assays and 2.5×10^5 cells/ml were used for NF-κB nuclear translocation assay. Cells were seeded onto 96-, 24-, or 12-well plates and incubated for 48 to 72 h to allow for differentiation. Cells were washed with serum-free RPMI 1640 medium before each experiment to remove the undifferentiated cells.
Differentiated THP-1 cells were pretreated with 50 μM of cis-gnetin H, trans-gnetin H, or 10 μM of Bay 11-7082 for 1 h and stimulated with 1 μg/ml of LPS for 30 min. Bay 11-7082 is a compound that inhibits IKK α/β and IκB α phosphorylation and was used as a positive control (Juliana et al., 2010, J. Biol. Chem., 285:9792-802). Treated cells were fixed, permeabilized, blocked, and stained with NF-κB, p65 primary antibody, Dylight 488 conjugated secondary antibody, and Hoechst 33342 dye, sequentially. The Hoechst and DyLight fluorophores detect changes in nuclear morphology (blue fluorescence) and NF-κB distribution (green fluorescence) respectively. Nuclear Translocation Bioapplication software on the Arrayscan VTI reader was used for image acquisition and analysis. For each well, at least 400 cells were automatically acquired and analyzed. The translocation index was calculated by measuring the average intensity difference of NF-icB between the identified cytoplasmic region and nuclear region.

One may read the IC50 as the concentration needed to halve the response being measured. With `Oc1ccc(/C=C\c2c3c(cc4c2[C@H](c2cc(O)cc(O)c2)[C@@H](c2ccc(O)cc2)O4)O[C@H](c2ccc(O)cc2)[C@H]3c2cc(O)cc(O)c2)cc1` [cis-gnetin H], the concentration for half-maximal inhibition (IC50) in test [1] is 10 µM; in test [2], 25.9 to 91 µM. The nuclear size entry is “no alternation in nuclear size” in test [3] (A549, 24 hrs treatment) and “reduction in nuclear size” in test [3] (A549, 48 hrs treatment). The mitochondria transmembrane potential result in test [3] was “reduction in the mitochondria transmembrane potential”. Besides, the “apoptosis induction in BT20” value in test [4] is reported as “induce apoptosis”. Moreover, the “cytochrome c release in A549” value in test [5] was “release of mitochondrial cytochrome c”. Further, the “G0-G1 subpopulation, BT20” value in test [6] was “increased significantly”. In addition, the “M and G2-S subpopulation, BT20” value in test [6] is listed as “significant decrease”. In addition, the p65 nuclear translocation entry in test [7] is “inhibited the p65 nuclear translocation”.
For `Oc1ccc(/C=C/c2c3c(cc4c2[C@H](c2cc(O)cc(O)c2)[C@@H](c2ccc(O)cc2)O4)O[C@H](c2ccc(O)cc2)[C@H]3c2cc(O)cc(O)c2)cc1` [trans-gnetin H], the IC50 in test [1] was 7.58 µM; in test [2], 25.9 to 91 µM. Besides, the nuclear size entry in test [3] (A549, 24 hrs treatment) is given as “no alternation in nuclear size”; in test [3] (A549, 48 hrs treatment) it was “reduction in nuclear size”. Moreover, the mitochondria transmembrane potential result in test [3] was “reduction in the mitochondria transmembrane potential”. The “apoptosis induction in BT20” value in test [4] is listed as “induce apoptosis”. Further, the “cytochrome c release in A549” value in test [5] was “release of mitochondrial cytochrome c”. In test [6], the “G0-G1 subpopulation, BT20” value is on record as “increased significantly”. Moreover, the “M and G2-S subpopulation, BT20” value in test [6] is on record as “significant decrease”. In test [7], the p65 nuclear translocation result is reported as “inhibited the p65 nuclear translocation”.
